One molecule from patent publication US20240165109A1, “Methods of Treatment with Selective CB2 Receptor Agonists” (Arena Pharmaceuticals, Inc., priority 2021, published 2024) can be followed below.

Bounds are passed on as bounds.

For test [1], the system named is subjects with irritable bowel syndrome experiencing abdominal pain. Particulars: 50 mg tid, week 12, subgroup with baseline AAPS >= 6.5 (moderate to severe pain).
For test [2], the system named is painful peripheral diabetic neuropathy. The experiment in a line: painful peripheral diabetic neuropathy model. Particulars: in vivo. The source says: (§1) Methods of treating pain, including visceral pain with APD371 are described in US patent application publication no. 2020-0078358, which is herein incorporated by reference in its entirety.
The next test deals with T1, rat CB2 receptors (Rattus norvegicus, UniProt Q9QZN9).
T1 sequence (Q9QZN9 1-360): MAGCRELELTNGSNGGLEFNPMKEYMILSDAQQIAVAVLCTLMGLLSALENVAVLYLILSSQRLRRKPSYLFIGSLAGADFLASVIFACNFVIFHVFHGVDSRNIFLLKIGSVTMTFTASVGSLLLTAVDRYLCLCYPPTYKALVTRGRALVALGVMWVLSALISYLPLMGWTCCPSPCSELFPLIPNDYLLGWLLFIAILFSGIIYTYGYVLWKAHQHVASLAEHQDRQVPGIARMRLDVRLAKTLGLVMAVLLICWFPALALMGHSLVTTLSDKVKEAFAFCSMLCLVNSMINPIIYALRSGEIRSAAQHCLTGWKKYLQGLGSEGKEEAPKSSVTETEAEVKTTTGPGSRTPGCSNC
Nature of the test: CB2 receptor internalization efficacy relative to CP55,940 (rat). Format: cell-based.
From the text: as §1

The test system of a further test is osteoarthritis pain. The experiment in a line: osteoarthritis pain model. Format: in vivo.
From the text: as §1

Test [3] concerns paclitaxel-induced neuropathic pain. The experiment in a line: paclitaxel-induced neuropathic pain model. Particulars: in vivo.
From the text: as §1

Test [4] deals with T2, human CB2 receptor (Homo sapiens, UniProt P34972). Nature of the test: selectivity for human CB2 receptor versus human CB1 receptor. The settings on record: human CB2 vs human CB1.
T2 sequence (P34972 whole entry): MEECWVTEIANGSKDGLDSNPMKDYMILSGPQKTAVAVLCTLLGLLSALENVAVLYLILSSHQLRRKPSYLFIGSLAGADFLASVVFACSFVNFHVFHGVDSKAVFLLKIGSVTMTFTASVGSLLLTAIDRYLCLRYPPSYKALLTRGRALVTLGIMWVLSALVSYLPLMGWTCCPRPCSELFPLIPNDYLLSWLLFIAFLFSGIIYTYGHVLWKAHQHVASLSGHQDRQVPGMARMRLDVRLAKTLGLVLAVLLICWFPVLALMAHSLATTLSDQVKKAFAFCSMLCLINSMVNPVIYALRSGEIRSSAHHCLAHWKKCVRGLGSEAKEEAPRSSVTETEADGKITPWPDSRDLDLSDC
From the text: as §1

The target of test [5] is T2, human CB2 receptor. The experiment in a line: CB2 receptor internalization efficacy relative to CP55,940 (human). The class given is cell-based.
From the text: as §1

For `CC(C)(C)[C@@H](CO)NC(=O)c1nn(-c2c[n+]([O-])ccn2)c2c1C[C@@H]1C[C@H]21` [Compound A, (1aS,5aS)-2-(4-Oxy-pyrazin-2-yl)-1a,2,5,5a-tetrahydro-1H-2,3-diaza-cyclopropa[a]pentalene-4-carboxylic acid ((S)-1-Hydroxymethyl-2,2-dimethyl-propyl)-amide], the “reduction in AAPS from baseline” value in test [1] is recorded as 3.93 points. In addition, the “reduction in AAPS compared to placebo” value in test [1] (p=0.01) came to 1.64 points. In addition, the “efficacy in model of painful peripheral diabetic neuropathy” value in test [2] is given as “sustained efficacy”. Also, the entries for the “receptor internalization efficacy relative to CP55,940” value at rat CB2 receptors and on human CB2 receptor [5] were 105% and 96%, respectively. Further, in the test with osteoarthritis pain (in vivo), the “efficacy in model of osteoarthritis pain” value is given as “sustained efficacy”. Also, the “duration of in vivo efficacy following dosing” value in the test with osteoarthritis pain (osteoarthritis pain model, despite rapidly declining plasma concentrations) is given as “maintained in vivo efficacy for four hours following dosing”. For the same molecule, the “efficacy in model of paclitaxel-induced neuropathic pain” value in test [3] was “sustained efficacy”. Moreover, the “selectivity for the human CB2 receptor versus the human CB1 receptor” value at human CB2 receptor [4] is given as > 1,000 fold.
